Experimental data reported in US20240132431A1, “METHOD FOR ALKYLATING ACIDIC FUNCTIONAL GROUP” (Chugai Seiyaku Kabushiki Kaisha, priority 2021, published 2024).

Target: T1, Bcl-2 protein (Recombinant Human Bcl-2 Protein) (Homo sapiens, UniProt P10415)
T1 construct: purchased Novus NBP2-34889
Test: Binding evaluation of mixture library compounds to Bcl-2 using AS-MS (affinity selection mass spectrometry)
Conditions: AS-MS, mixture library, Bcl-2, ASMS Ratio(%)=(A−C)/B×100; for ASMS ratio (%) n = 2: replicate n = 2; for ASMS ratio (%) n = 1: replicate n = 1
Outline: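 Pooled library of ~1200 compounds ([…] each, final) incubated with recombinant human Bcl-2 (20 μM final) in Tris-HCl pH 7.4, NaCl, Tween-20, DTT buffer, dark, 23° C., 1 h. Bound fraction recovered by SEC spin column, organic extraction, reversed-phase LC/MS. ASMS Ratio (%) = (A−C)/B×100 versus protein-free standard and SEC blank.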

T1 sequence (P10415 whole entry): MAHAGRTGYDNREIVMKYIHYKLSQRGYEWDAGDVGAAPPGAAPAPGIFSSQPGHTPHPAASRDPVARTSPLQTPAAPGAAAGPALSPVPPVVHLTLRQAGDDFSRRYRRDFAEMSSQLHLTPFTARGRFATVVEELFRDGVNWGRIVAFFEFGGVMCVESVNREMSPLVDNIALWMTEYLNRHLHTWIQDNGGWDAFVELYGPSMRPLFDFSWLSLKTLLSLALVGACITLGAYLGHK

Row | ASMS ratio (%) n = 2 [%] | ASMS ratio (%) n = 1 [%] | SMILES
1 | 0.0 | – | CCOc1cccc(C#Cc2ccccc2C(=O)N2CCN(c3ccc(C(=O)NS(=O)(=O)CC45CC6CC(CC(C6)C4)C5)nn3)CC2)c1 [B2A007-01, N-(1-Adamantylmethylsulfonyl)-6-[4-[2-[2-(3-ethoxyphenyl)ethynyl]benzoyl]piperazin-1-yl]pyridazine-3-carboxamide]
2 | 7.2 | 3.1 | CCOc1cncc(C#Cc2ccccc2C(=O)N2CCN(c3ccc(C(=O)NS(=O)(=O)CC45CC6CC(CC(C6)C4)C5)nn3)CC2)c1 [B2A008-01, N-(1-Adamantylmethylsulfonyl)-6-[4-[2-[2-(5-ethoxypyridin-3-yl)ethynyl]benzoyl]piperazin-1-yl]pyridazine-3-carboxamide]
3 | 7.2 | 3.1 | CCOc1cccc(C#Cc2cncc(C(=O)N3CCN(c4ccc(C(=O)NS(=O)(=O)CC56CC7CC(CC(C7)C5)C6)nn4)CC3)c2)c1 [B2A009-01, N-(1-Adamantylmethylsulfonyl)-6-[4-[5-[2-(3-ethoxyphenyl)ethynyl]pyridine-3-carbonyl]piperazin-1-yl]pyridazine-3-carboxamide]
4 | 0.0 | 0.0 | CCOc1cncc(C#Cc2cncc(C(=O)N3CCN(c4ccc(C(=O)NS(=O)(=O)CC56CC7CC(CC(C7)C5)C6)nn4)CC3)c2)c1 [B2A010-01, N-(1-Adamantylmethylsulfonyl)-6-[4-[5-[2-(5-ethoxypyridin-3-yl)ethynyl]pyridine-3-carbonyl]piperazin-1-yl]pyridazine-3-carboxamide]
5 | 0.3 | 9.0 | CCOc1cccc(-c2ccccc2CCC(=O)N2CCN(c3ccc(C(=O)NS(=O)(=O)CC45CC6CC(CC(C6)C4)C5)nn3)CC2)c1 [B2A011-01, N-(1-Adamantylmethylsulfonyl)-6-[4-[3-[2-(3-ethoxyphenyl)phenyl]propanoyl]piperazin-1-yl]pyridazine-3-carboxamide]
6 | 1.9 | 1.5 | CCOc1cncc(-c2ccccc2CCC(=O)N2CCN(c3ccc(C(=O)NS(=O)(=O)CC45CC6CC(CC(C6)C4)C5)nn3)CC2)c1 [B2A012-01, N-(1-Adamantylmethylsulfonyl)-6-[4-[3-[2-(5-ethoxypyridin-3-yl)phenyl]propanoyl]piperazin-1-yl]pyridazine-3-carboxamide]
7 | 17.8 | 11.6 | CCOc1cccc(-c2ccc(C(=O)N3CCN(c4ccc(C(=O)NS(=O)(=O)CC56CC7CC(CC(C7)C5)C6)nn4)CC3)c3ccccc23)c1 [B2A013-01, N-(1-Adamantylmethylsulfonyl)-6-[4-[4-(3-ethoxyphenyl)naphthalene-1-carbonyl]piperazin-1-yl]pyridazine-3-carboxamide]
8 | 2.2 | 7.7 | CCOc1cncc(-c2ccc(C(=O)N3CCN(c4ccc(C(=O)NS(=O)(=O)CC56CC7CC(CC(C7)C5)C6)nn4)CC3)c3ccccc23)c1 [B2A014-01, N-(1-Adamantylmethylsulfonyl)-6-[4-[4-(5-ethoxypyridin-3-yl)naphthalene-1-carbonyl]piperazin-1-yl]pyridazine-3-carboxamide]
9 | 9.7 | 5.9 | CCOc1cccc(-c2cc(C(=O)N3CCN(c4ccc(C(=O)NS(=O)(=O)CC56CC7CC(CC(C7)C5)C6)nn4)CC3)cc(C(C)(C)C)c2)c1 [B2A015-01, N-(1-Adamantylmethylsulfonyl)-6-[4-[3-tert-butyl-5-(3-ethoxyphenyl)benzoyl]piperazin-1-yl]pyridazine-3-carboxamide]
10 | 2.5 | 0.0 | CCOc1cncc(-c2cc(C(=O)N3CCN(c4ccc(C(=O)NS(=O)(=O)CC56CC7CC(CC(C7)C5)C6)nn4)CC3)cc(C(C)(C)C)c2)c1 [B2A016-01, N-(1-Adamantylmethylsulfonyl)-6-[4-[3-tert-butyl-5-(5-ethoxypyridin-3-yl)benzoyl]piperazin-1-yl]pyridazine-3-carboxamide]
11 | 7.5 | 18.6 | CCOc1cccc(-c2cc(C(=O)N3CCN(c4ccc(C(=O)NS(=O)(=O)CC56CC7CC(CC(C7)C5)C6)nn4)CC3)cc(C(F)(F)F)c2)c1 [B2A017-01, N-(1-Adamantylmethylsulfonyl)-6-[4-[3-(3-ethoxyphenyl)-5-(trifluoromethyl)benzoyl]piperazin-1-yl]pyridazine-3-carboxamide]
12 | 0.0 | 5.1 | CCOc1cncc(-c2cc(C(=O)N3CCN(c4ccc(C(=O)NS(=O)(=O)CC56CC7CC(CC(C7)C5)C6)nn4)CC3)cc(C(F)(F)F)c2)c1 [B2A018-01, N-(1-Adamantylmethylsulfonyl)-6-[4-[3-(5-ethoxypyridin-3-yl)-5-(trifluoromethyl)benzoyl]piperazin-1-yl]pyridazine-3-carboxamide]
13 | 5.0 | 7.4 | CCOc1cccc(C#Cc2cc(C(=O)N3CCN(c4ccc(C(=O)NS(=O)(=O)CC56CC7CC(CC(C7)C5)C6)nn4)CC3)cc(C(F)(F)F)c2)c1 [B2A019-01, N-(1-Adamantylmethylsulfonyl)-6-[4-[3-[2-(3-ethoxyphenyl)ethynyl]-5-(trifluoromethyl)benzoyl]piperazin-1-yl]pyridazine-3-carboxamide]
14 | 8.9 | 3.4 | CCOc1cncc(C#Cc2cc(C(=O)N3CCN(c4ccc(C(=O)NS(=O)(=O)CC56CC7CC(CC(C7)C5)C6)nn4)CC3)cc(C(F)(F)F)c2)c1 [B2A020-01, N-(1-Adamantylmethylsulfonyl)-6-[4-[3-[2-(5-ethoxypyridin-3-yl)ethynyl]-5-(trifluoromethyl)benzoyl]piperazin-1-yl]pyridazine-3-carboxamide]
15 | 9.4 | 14.4 | CCOc1cccc(-c2cnn(-c3cc(C(=O)N4CCN(c5ccc(C(=O)NS(=O)(=O)CC67CC8CC(CC(C8)C6)C7)nn5)CC4)cc(C(F)(F)F)c3)c2)c1 [B2A021-01, N-(1-Adamantylmethylsulfonyl)-6-[4-[3-[4-(3-ethoxyphenyl)pyrazol-1-yl]-5-(trifluoromethyl)benzoyl]piperazin-1-yl]pyridazine-3-carboxamide]
16 | 3.7 | 27.0 | CCOc1cncc(-c2cnn(-c3cc(C(=O)N4CCN(c5ccc(C(=O)NS(=O)(=O)CC67CC8CC(CC(C8)C6)C7)nn5)CC4)cc(C(F)(F)F)c3)c2)c1 [B2A022-01, N-(1-Adamantylmethylsulfonyl)-6-[4-[3-[4-(5-ethoxypyridin-3-yl)pyrazol-1-yl]-5-(trifluoromethyl)benzoyl]piperazin-1-yl]pyridazine-3-carboxamide]
17 | 0.0 | 0.0 | CCOc1cccc(-c2csc(C(=O)N3CCN(c4ccc(C(=O)NS(=O)(=O)CC56CC7CC(CC(C7)C5)C6)cc4)CC3)c2)c1 [B2A023-01, N-(1-Adamantylmethylsulfonyl)-4-[4-[4-(3-ethoxyphenyl)thiophene-2-carbonyl]piperazin-1-yl]benzamide]
18 | 0.0 | −1.9 | CCOc1cncc(-c2csc(C(=O)N3CCN(c4ccc(C(=O)NS(=O)(=O)CC56CC7CC(CC(C7)C5)C6)cc4)CC3)c2)c1 [B2A024-01, N-(1-Adamantylmethylsulfonyl)-4-[4-[4-(5-ethoxypyridin-3-yl)thiophene-2-carbonyl]piperazin-1-yl]benzamide]
19 | −2.7 | 4.6 | CCOc1cccc(-c2ccc(C(=O)N3CCN(c4ccc(C(=O)NS(=O)(=O)CC56CC7CC(CC(C7)C5)C6)cc4)CC3)cc2C)c1 [B2A025-01, N-(1-Adamantylmethylsulfonyl)-4-[4-[4-(3-ethoxyphenyl)-3-methylbenzoyl]piperazin-1-yl]benzamide]
20 | −2.1 | 0.8 | CCOc1cncc(-c2ccc(C(=O)N3CCN(c4ccc(C(=O)NS(=O)(=O)CC56CC7CC(CC(C7)C5)C6)cc4)CC3)cc2C)c1 [B2A026-01, N-(1-Adamantylmethylsulfonyl)-4-[4-[4-(5-ethoxypyridin-3-yl)-3-methylbenzoyl]piperazin-1-yl]benzamide]
21 | −3.9 | 5.5 | CCOc1cccc(-c2ccc(C(=O)N3CCN(c4ccc(C(=O)NS(=O)(=O)CC56CC7CC(CC(C7)C5)C6)cc4)CC3)cc2F)c1 [B2A027-01, N-(1-Adamantylmethylsulfonyl)-4-[4-[4-(3-ethoxyphenyl)-3-fluorobenzoyl]piperazin-1-yl]benzamide]
22 | 1.2 | −1.0 | CCOc1cncc(-c2ccc(C(=O)N3CCN(c4ccc(C(=O)NS(=O)(=O)CC56CC7CC(CC(C7)C5)C6)cc4)CC3)cc2F)c1 [B2A028-01, N-(1-Adamantylmethylsulfonyl)-4-[4-[4-(5-ethoxypyridin-3-yl)-3-fluorobenzoyl]piperazin-1-yl]benzamide]
23 | 0.3 | 0.0 | CCOc1cncc(C#Cc2ccccc2C(=O)N2CCN(c3ccc(C(=O)NS(=O)(=O)CC45CC6CC(CC(C6)C4)C5)cc3)CC2)c1 [B2A030-01, N-(1-Adamantylmethylsulfonyl)-4-[4-[2-[2-(5-ethoxypyridin-3-yl)ethynyl]benzoyl]piperazin-1-yl]benzamide]
24 | 0.3 | 0.0 | CCOc1cccc(C#Cc2cncc(C(=O)N3CCN(c4ccc(C(=O)NS(=O)(=O)CC56CC7CC(CC(C7)C5)C6)cc4)CC3)c2)c1 [B2A031-01, N-(1-Adamantylmethylsulfonyl)-4-[4-[5-[2-(3-ethoxyphenyl)ethynyl]pyridine-3-carbonyl]piperazin-1-yl]benzamide]
